Among the test systems are A549 NSCLC; CAKI-1 renal; EKVX NSCLC; HCC-2998 colon; HCT-15 colon; KM12 colon; LOX IMVI melanoma; MOLT-4 leukemia; NCI-H23 lung; OVCAR-3 ovarian; OVCAR-4 ovarian; OVCAR-8 ovarian; PC-3 prostate; SF-295 CNS; SF-539 CNS; SK-OV-3 ovarian; SNB-19 CNS; T-47D breast; TK-10 renal; UO-31 renal.
Experiment in all cases: inhibition of tumour cell growth, NCI panel, 48 h

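Exposure lasted 48 hours, with cells grown in 96-well plates and compounds tested at five concentrations. TGI: concentration producing complete growth inhibition.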 Bounds are passed on as bounds.

Turning to `N#Cc1nc(NC(=O)c2ccccc2)sc1N`, the TGI in the experiment with A549 NSCLC, with CAKI-1 renal, in the experiment on EKVX NSCLC, in the experiment on HCC-2998 colon, with HCT-15 colon and in the experiment on KM12 colon was greater than 10 µM in each case. Moreover, the TGI with LOX IMVI melanoma, in the experiment on MOLT-4 leukemia, in the experiment with NCI-H23 lung, in the experiment with OVCAR-3 ovarian, with OVCAR-4 ovarian and with OVCAR-8 ovarian was greater than 10 µM throughout. In addition, the TGI in the experiment on PC-3 prostate, in the experiment with SF-295 CNS, in the experiment on SF-539 CNS, in the experiment on SK-OV-3 ovarian, in the experiment with SNB-19 CNS and in the experiment on T-47D breast was greater than 10 µM in each case. Besides, the TGI in the experiment with TK-10 renal and in the experiment on UO-31 renal was greater than 10 µM each time.

As to `Cc1cn(C2CC(N=[N+]=[N-])C(CO)O2)c(=O)n(CCCCO)c1=O` (stereo not given), the TGI in the experiment with A549 NSCLC, in the experiment with CAKI-1 renal, with EKVX NSCLC, in the experiment on HCC-2998 colon, with HCT-15 colon and with KM12 colon was greater than 100 µM in each case. The TGI with LOX IMVI melanoma, in the experiment with MOLT-4 leukemia, with NCI-H23 lung, in the experiment on OVCAR-3 ovarian, in the experiment with OVCAR-4 ovarian and in the experiment on OVCAR-8 ovarian was greater than 100 µM in each case. The TGI in the experiment with PC-3 prostate, in the experiment on SF-295 CNS, with SF-539 CNS, in the experiment on SK-OV-3 ovarian, in the experiment on SNB-19 CNS and in the experiment on T-47D breast was greater than 100 µM throughout. In addition, the TGI in the experiment with TK-10 renal and in the experiment on UO-31 renal was greater than 100 µM throughout.

For `O=C1CSC(c2ccccc2[N+](=O)[O-])N1c1ccc(-n2c(-c3ccccc3)nc3ccccc3c2=O)cc1` (stereo not given), the TGI in the experiment with A549 NSCLC, in the experiment with CAKI-1 renal, in the experiment on EKVX NSCLC, with HCC-2998 colon, in the experiment on HCT-15 colon and in the experiment on KM12 colon was greater than 100 µM throughout. In addition, the TGI with LOX IMVI melanoma, in the experiment with MOLT-4 leukemia, in the experiment on NCI-H23 lung, in the experiment with OVCAR-3 ovarian, in the experiment on OVCAR-4 ovarian and in the experiment with OVCAR-8 ovarian was greater than 100 µM in each case. For the same compound, the TGI with PC-3 prostate is greater than 100 µM; in the experiment with SF-295 CNS, 64.3 µM; in the experiment with SF-539 CNS it was greater than 100 µM; in the experiment with SK-OV-3 ovarian, 28.3 µM; with SNB-19 CNS it was greater than 100 µM; with T-47D breast, 98.4 µM. For the same compound, the TGI with TK-10 renal and with UO-31 renal was greater than 100 µM each time.

As for `Cc1cn(CCCCOC(=O)NC(CCCNC(N)=O)C(=O)O)c(=O)[nH]c1=O` (stereo not given), the TGI with A549 NSCLC, with CAKI-1 renal, in the experiment with EKVX NSCLC, with HCC-2998 colon, in the experiment on HCT-15 colon and in the experiment with KM12 colon was greater than 100 µM each time. Moreover, the TGI in the experiment on LOX IMVI melanoma, in the experiment with MOLT-4 leukemia, in the experiment with NCI-H23 lung, in the experiment with OVCAR-3 ovarian, in the experiment with OVCAR-4 ovarian and in the experiment on OVCAR-8 ovarian was greater than 100 µM throughout. Besides, the TGI in the experiment with PC-3 prostate, in the experiment with SF-295 CNS, in the experiment with SF-539 CNS, with SK-OV-3 ovarian, in the experiment on SNB-19 CNS and in the experiment on T-47D breast was greater than 100 µM throughout. Further, the TGI in the experiment with TK-10 renal and in the experiment on UO-31 renal was greater than 100 µM in each case.

Turning to `COc1cc(S(=O)(=O)Nc2ccc(-c3csc(/N=C\C=C\c4ccccc4)n3)cc2)ccc1Cl`, the TGI with A549 NSCLC, with CAKI-1 renal, in the experiment with EKVX NSCLC, in the experiment on HCC-2998 colon, with HCT-15 colon and in the experiment on KM12 colon was greater than 100 µM each time. The TGI with LOX IMVI melanoma, with MOLT-4 leukemia, in the experiment on NCI-H23 lung, in the experiment with OVCAR-3 ovarian, in the experiment on OVCAR-4 ovarian and in the experiment with OVCAR-8 ovarian was greater than 100 µM each time. Also, the TGI in the experiment with PC-3 prostate is 56.7 µM; in the experiment on SF-295 CNS it was greater than 100 µM; in the experiment with SF-539 CNS, 59.8 µM; in the experiment on SK-OV-3 ovarian, greater than 100 µM; in the experiment on SNB-19 CNS it was greater than 100 µM; in the experiment with T-47D breast, 80.7 µM. The TGI in the experiment with TK-10 renal and with UO-31 renal was greater than 100 µM throughout.

As for `O=C1Cc2c(-c3ccccc3)cc(-c3ccc4ccccc4c3)nc2-c2ccccc2N1`, the TGI in the experiment with A549 NSCLC was greater than 100 µM; in the experiment with CAKI-1 renal, 12.5 µM; in the experiment on EKVX NSCLC it was 76.4 µM; in the experiment with HCC-2998 colon it was greater than 100 µM; in the experiment on HCT-15 colon it was greater than 100 µM; in the experiment on KM12 colon, 28.3 µM. Besides, the TGI is greater than 100 µM in the experiment on LOX IMVI melanoma; greater than 100 µM in the experiment on MOLT-4 leukemia; greater than 100 µM in the experiment with NCI-H23 lung; 27.6 µM in the experiment with OVCAR-3 ovarian; greater than 100 µM with OVCAR-4 ovarian; 4.9 µM in the experiment on OVCAR-8 ovarian. Also, the TGI with PC-3 prostate was 45.5 µM; with SF-295 CNS, greater than 100 µM; with SF-539 CNS, greater than 100 µM; in the experiment on SK-OV-3 ovarian, greater than 100 µM; with SNB-19 CNS, greater than 100 µM; with T-47D breast it was greater than 100 µM. The TGI with TK-10 renal was 29.4 µM; with UO-31 renal it was greater than 100 µM.

Source of the values: PubChem BioAssay (NCI).
